According to paper PMC8243516, “Inhibition of lysosomal phospholipase A2 predicts drug-induced phospholipidosis” (Journal of Lipid Research, 2021):
Like-named read-outs stand apart in the source and are kept apart here.

Experiments:
LPLA2 = target: T1, LPLA2 (Mus musculus, UniProt Q8VEB4); test: LPLA2 thermal stability measurement (SYPRO Orange Tm); format: binding
T1 construct: purchased Proteos Inc. (Kalamazoo, MI)
T1 sequence (Q8VEB4 34-412): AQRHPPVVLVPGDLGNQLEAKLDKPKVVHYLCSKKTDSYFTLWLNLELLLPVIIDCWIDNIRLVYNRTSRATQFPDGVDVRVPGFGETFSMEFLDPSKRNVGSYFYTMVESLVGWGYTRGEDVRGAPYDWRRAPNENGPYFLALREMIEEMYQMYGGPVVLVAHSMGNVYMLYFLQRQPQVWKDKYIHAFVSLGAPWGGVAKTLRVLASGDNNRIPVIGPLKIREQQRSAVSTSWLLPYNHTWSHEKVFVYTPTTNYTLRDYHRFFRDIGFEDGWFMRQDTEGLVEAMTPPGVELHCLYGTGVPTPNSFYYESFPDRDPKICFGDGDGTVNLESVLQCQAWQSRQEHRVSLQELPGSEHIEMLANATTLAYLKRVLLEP

[1] = cited from earlier work
MDCK cells = test: Screening phospholipidosis assay (LipidTOX Red / NucBlue Live fluorescence ratio); conditions: for Ratio (15 μM): LipidTOX Red to NucBlue Live fluorescence ratio, 24 h
[2] = target: T2, recombinant mouse LPLA2 (PLA2G15) (Mus musculus, UniProt Q8VEB4); test: Transacylase activity of LPLA2 (1-O-acyl-N-acetylsphingosine synthase, cell-free liposome assay); format: biochemical
T2 construct: purchased Proteos Inc. (Kalamazoo, MI)
T2 sequence (Q8VEB4 34-412): T1 sequence (Q8VEB4 34-412)

phospholipidosis = phospholipidosis reported in vitro; Refs of Table 1; cited from earlier work
[3] = ref Pubchem and chEMBL database
[4] = LPLA2 dependent 1-O-acyl N-acetylsphingosine synthase activity, read-out: LPLA2 IC50
[5] = 1-O-acyl N-acetylsphingosine synthase activity, pH 4.5, DOPC/sulfatide liposomes, read-out: LPLA2 IC50
[6] = ref Pubchem and chEMBL databases

Structure (SMILES) | (ΔTm)c-(ΔTm)d, difference in melting temperature of LPLA2 alone or in the presence of drug (LPLA2; N=3 ± SD) | pKa (basic) [1, 3] | Ratio (15 μM) (MDCK cells) | (ΔTm)c-(ΔTm)d, difference in melting temperature of LPLA2 alone or in the presence of drug (LPLA2) | IC50 [2, 4] | IC50 [2, 5] | Signal in the LipidTOX assay (in words) (MDCK cells) | In Vitro PLD (phospholipidosis) | pKa (basic) [1, 6] | IC50 ([2]; LPLA2 IC50, 1-O-acyl N-acetylsphingosine synthase activity, pH 4.5, DOPC/sulfatide liposomes)
Cn1c(=O)[nH]c2ncn(C)c2c1=O [1,7-Dimethylxanthine] | 0 °C | 13.5 | 0.55 |  |  |  |  |  |  | 
Cl.NCCc1ccc(O)c(O)c1 [3-Hydroxytyramine hydrochloride] |  |  | 0.91 | 0.75 ± 0.0 °C |  |  |  |  |  | 
NCCc1cc(O)c(O)cc1O [6-Hydroxydopamine] | -0.14 ± 0.1 °C |  | 0.93 |  |  |  |  |  |  | 
Oc1ncnc2[nH]ncc12 [Allopurinol] | 0.67 ± 0.2 °C | 2.57 | 0.37 |  |  |  |  |  |  | 
CCN1CCCC1CNC(=O)c1cc(S(=O)(=O)CC)c(N)cc1OC (centres unmarked) [Amisulpride] | 0 °C | 7.05 | 0.08 |  | 1920 µM |  |  |  |  | 
O=C(CCCN1CCN(c2ccccn2)CC1)c1ccc(F)cc1 [Azaperone] | 0.93 ± 0.1 °C | 7.16 | 0.43 |  |  |  |  |  |  | 
CN(Cc1ccc(C(C)(C)C)cc1)Cc1cccc2ccccc12 [Butenafine] | -2.22 ± 0.3 °C | 9.23 | 0.31 |  | 41.2 µM |  |  |  |  | 
NC(=O)N1c2ccccc2C=Cc2ccccc21 [Carbamazepine] | -1.26 ± 0.1 °C | -3.8 | 0.18 |  | 106 µM |  |  |  |  | 
Clc1cccc(Cl)c1N=C1NCCN1 [Clonidine] | -0.62 ± 0.0 °C | 8.16 | 0.25 |  |  |  |  |  |  | 
CCOC(=O)COc1ccc2c(C)c(CCN(CC)CC)c(=O)oc2c1Cl [Cloricromen] | 0.24 ± 0.1 °C | 9.1 | 0.1 |  | 285 µM |  |  |  |  | 
COc1cc(C(=O)OCCCN2CCCN(CCCOC(=O)c3cc(OC)c(OC)c(OC)c3)CC2)cc(OC)c1OC [Dilazep] | 0.11 ± 0.1 °C | 9.54 | 1.17 |  | 59.8 µM |  |  |  |  | 
O=C1NCC2(CCN(CCc3ccccc3)CC2)O1 [Fenspiride] | -1.67 ± 1.0 °C | 9.37 | 0.07 |  |  |  |  |  |  | 
O=C(O)[C@@H]1C[C@@H](C2CCCCC2)CN1C(=O)CP(=O)(O)CCCCc1ccccc1 [Fosinoprilat] | -1.45 ± 0.9 °C | -4.7 | 0.19 |  | 5.76 µM | 5.8 µM | positive signal |  |  | 
C[C@]12CC[C@@H]3c4ccc(O)cc4C[C@@H](CCCCCCCCC[S+]([O-])CCCC(F)(F)C(F)(F)F)[C@H]3[C@@H]1CC[C@@H]2O (some centres unmarked) [Fulvestrant] | -1.05 ± 4.0 °C | -0.88 | 0.37 |  | 61.8 µM |  |  |  |  | 
CC(=O)O[C@H]1C[C@@]2(C)[C@@H](C[C@@H](O)[C@H]3[C@@]4(C)CC[C@@H](O)[C@@H](C)[C@@H]4CC[C@@]32C)/C1=C(\CCC=C(C)C)C(=O)O [Fuscidic acid] | 0.94 ± 0.1 °C | -0.2 | 0.23 |  | 231 µM |  |  |  |  | 
NNc1nncc2ccccc12 [Hydralazine] | 1.20 ± 0.1 °C | 6.4 | 0.6 |  | 100 µM |  |  |  |  | 
CC(C)Cn1cnc2c(N)nc3ccccc3c21 [Imiquimod] | 0.66 ± 0.2 °C | 5.01 | 0.07 |  | 160 µM |  |  |  |  | 

Structure (SMILES) | (ΔTm)c-(ΔTm)d, difference in melting temperature of LPLA2 alone or in the presence of drug (LPLA2; N=3 ± SD) | pKa (basic) [1, 3] | Ratio (15 μM) (MDCK cells) | (ΔTm)c-(ΔTm)d, difference in melting temperature of LPLA2 alone or in the presence of drug (LPLA2) | IC50 [2, 4] | IC50 [2, 5] | Signal in the LipidTOX assay (in words) (MDCK cells) | In Vitro PLD (phospholipidosis) | pKa (basic) [1, 6] | IC50 ([2]; LPLA2 IC50, 1-O-acyl N-acetylsphingosine synthase activity, pH 4.5, DOPC/sulfatide liposomes)
CC(COc1ccccc1)NC(C)C(O)c1ccc(O)cc1 (centres unmarked) [Isoxsuprine] | 1.1 ± 0.0 °C | 9 | 1.22 |  |  |  |  |  |  | 
CN1CCc2c(c3ccccc3n2Cc2ccccc2)C1 [Mebhydrolin] |  | 6.7 | 2.54 |  | 146 µM |  |  |  |  | 
Cc1ccc(Cl)c(Nc2ccccc2C(=O)O)c1Cl [Meclofenamic acid] | -0.23 ± 0.1 °C | -3.6 | 0.52 |  |  |  |  |  |  | 
COc1ccc2[nH]cc(CCNC(C)=O)c2c1 [Melatonin] | 0.15 ± 0.1 °C | -1.6 | 0.26 |  | 38 µM |  |  |  |  | 
COCC(=O)O[C@]1(CCN(C)CCCc2nc3ccccc3[nH]2)CCc2cc(F)ccc2[C@@H]1C(C)C [Mibefradil] | 1.30 ± 0.1 °C | 9.82 | 1.21 |  | 12.9 µM |  |  |  |  | 
O=C1NC(=O)C(c2ccccc2)(c2ccccc2)N1 [Phenytoin] | 0.13 ± 0.1 °C |  | 0.38 |  | 60 µM |  |  |  |  | 
NC(=O)C1(N2CCCCC2)CCN(CCCC(=O)c2ccc(F)cc2)CC1 [Pipamperone] | 0.83 ± 0.1 °C | 8.96 | 0.37 |  | 250 µM |  |  |  |  | 
COc1ccc(CN(CCN(C)C)c2ccccn2)cc1 [Pyrilamine, N-[2-(dimethylamino)ethyl]-N-[(4-methoxyphenyl)methyl]pyridin-2-amine] | 0 °C |  |  |  |  | 214 µM |  | Yes | 8.76 | 
CCOc1cc(CC(=O)NC(CC(C)C)c2ccccc2N2CCCCC2)ccc1C(=O)O (centres unmarked) [Repaglinide, 2-ethoxy-4-[2-({3-methyl-1-[2-(1-piperidinyl)phenyl]butyl}amino)-2-oxoethyl]benzoic acid] | -0.84 ± 1.5 °C |  |  |  |  | 86.5 µM |  | Yes | 4.28 | 
CC1=C(/C=C/C(C)=C/C=C/C(C)=C/CO)C(C)(C)CCC1 [Retinol, (2E,4E,6E,8E)-3,7-dimethyl-9-(2,6,6-trimethylcyclohex-1-en-1-yl)nona-2,4,6,8-tetraen-1-ol] | 0.81 ± 0.3 °C |  |  |  |  | 52.5 µM |  | Yes | -2.2 | 
Cc1nc2sccn2c(=O)c1CCN1CCC(=C(c2ccc(F)cc2)c2ccc(F)cc2)CC1 [Ritanserin] | -1.90 ± 02 °C | 8 | 0.19 |  | 13.4 µM |  |  |  |  | 
COc1ccc(C2CNC(=O)C2)cc1OC1CCCC1 (centres unmarked) [Rolipram] | -1.85 ± 0.9 °C | -1.9 | 0.19 |  | 300 µM |  |  |  |  | 
CCCCCCCCNC(C)C(O)c1ccc(SC(C)C)cc1 (centres unmarked) [Suloctidil] | 2.00 ± 0.2 °C | 9.76 | 0.66 |  | 6.82 µM |  |  |  |  | 
CCCCNc1ccc(C(=O)OCCN(C)C)cc1 [Tetracaine, 2-(dimethylamino)ethyl 4-(butylamino)benzoate] | -1.20 ± 0.5 °C |  |  |  |  | 333 µM |  | Yes | 8.42 | 
CC(CN(C)C)CN1c2ccccc2CCc2ccccc21 (centres unmarked) [Trimipramine, (3-{2-azatricyclo[9.4.0.0³,^8]pentadeca-1(15),3,5,7,11, 13-hexaen-2-yl}-2-methylpropyl)dimethylamine] | 0.56 ± 0.0 °C |  |  |  |  | 268 µM |  | Yes | 9.42 | 
COC(=O)[C@@H]1[C@H]2C[C@H]3c4[nH]c5ccccc5c4CCN3C[C@@H]2CC[C@@H]1O [Yohimbine, methyl (1S,15R,18S,19R,20S)-18-hydroxy-3,13-diazapentacyclo [11.8.0.0^2,^10.0^4,^9.0^15,^20]henicosa-2(10),4,6,8-tetraene-19-carboxylate] |  |  |  | 1.52 ± 0.6 °C |  |  |  | Yes | 7.65 | 200 µM
COc1cc(C(=O)NS(=O)(=O)c2ccccc2C)ccc1Cc1cn(C)c2ccc(NC(=O)OC3CCCC3)cc12 [Zafirlukast, cyclopentyl N-[3-({2-methoxy-4-[(2-methylbenzenesulfonyl)carbamoyl]phenyl}methyl)-1-methyl-1H-indol-5-yl]carbamate] | 1.80 ± 0.4 °C |  |  |  |  | 3.1 µM |  | Yes | -1.1 | 
